Results published in ChEMBL document CHEMBL1152852, “Substituted benzo[d]oxazol-2(3H)-one derivatives with preference for the sigma1 binding site” (Eur J Med Chem, 2009).

Columns and labels:
[1] = species: Rattus norvegicus; assay: Selectivity ratio of Ki for rat liver sigma 2 receptor to Ki for rat liver sigma 1 receptor
[2] = Displacement of [3H]DTG from sigma 2 receptor in rat liver membrane; format: cell membranes
[3] = target: Sigma non-opioid intracellular receptor 1 (Rattus norvegicus, UniProt Q9R0C9); assay: Displacement of [3H](+)-pentazocine from sigma 1 receptor in rat liver membrane; format: cell membranes
Sigma non-opioid intracellular receptor 1, sequence (Q9R0C9 whole entry): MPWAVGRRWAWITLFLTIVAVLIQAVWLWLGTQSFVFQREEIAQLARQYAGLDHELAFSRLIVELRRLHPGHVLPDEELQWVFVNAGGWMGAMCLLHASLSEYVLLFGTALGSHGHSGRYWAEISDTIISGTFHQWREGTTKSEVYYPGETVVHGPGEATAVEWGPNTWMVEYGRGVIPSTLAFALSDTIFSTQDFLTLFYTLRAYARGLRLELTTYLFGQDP

Row | SMILES | Ratio Ki [1] | Ki [2] [nM] | Ki [3] [nM]
1 | CCC(=O)c1ccc2c(c1)oc(=O)n2CCCN1CCCCC1 | 58 | 8.5 | –
2 | Cc1ccccc1CN1CCC(Cn2c(=O)oc3ccccc32)CC1 | 10 | 338 | 33
3 | Cc1ccc(CN(C)CCCCc2cn(-c3ccc(F)cc3)c3ccccc23)c(C)c1 | 0.05 | 5.9 | –
4 | O=c1oc2ccccc2n1CC1CCN(Cc2cccc3ccccc23)CC1 | – | 1290 | –
5 | O=c1oc2ccccc2n1CC1CCN(Cc2ccccc2Cl)CC1 | – | 299 | –
6 | Cc1ccc(CN2CCC(Cn3c(=O)oc4ccccc43)CC2)c(C)c1 | 6 | 187 | 30
7 | O=c1oc2ccccc2n1CC1CCN(Cc2ccc(-c3ccccc3)cc2)CC1 | > 25 | > 10000 | 394
8 | O=c1oc2ccccc2n1CC1CCN(Cc2ccc(Cl)cc2)CC1 | – | 427 | –
9 | Cc1cc(C)c(CN2CCC(Cn3c(=O)oc4ccccc43)CC2)c(C)c1 | 0.5 | 2880 | 6230
10 | O=C(CCCN1CCC(O)(c2ccc(Cl)cc2)CC1)c1ccc(F)cc1 [HALOPERIDOL] | – | 235 | –
11 | CC(C)=CCN1CC[C@]2(C)c3cc(O)ccc3C[C@H]1[C@H]2C [(+)-PENTAZOCINE] | – | 327 | –
12 | O=c1oc2ccccc2n1CC1CCN(Cc2ccccc2)CC1 | – | 246 | –
13 | Cc1ccccc1NC(=N)Nc1ccccc1C [DITOLYLGUANIDINE] | – | 130 | –
14 | Cc1ccc(CN2CCC(Cn3c(=O)oc4ccccc43)CC2)cc1 | 40 | 116 | 2.9
15 | O=c1oc2ccccc2n1CC1CCN(Cc2ccccc2F)CC1 | 9 | 213 | 23
16 | O=c1oc2ccccc2n1CC1CCN(Cc2ccc(Cl)cc2Cl)CC1 | 1.5 | 382 | 258
17 | O=c1oc2ccccc2n1CC1CCN(Cc2ccc(F)cc2)CC1 | 44 | 170 | 3.9
18 | CN(CCCc1cn(-c2ccc(F)cc2)c2ccccc12)Cc1ccccc1 | 22 | 5.9 | –
